Tested on: 885724-159-R-J1-PDC complex spheroid viability
Test: Anticancer human tumor 885724-159-R-J1-PDC patient-derived pancreatic adenocarcinoma cell line growth inhibition [POLQ]
Conditions: for IC50: curve of first compound; for viability, T/C: stronger effect = lower value
Protocol: Multicellular complex tumor spheroid response to Polymerase (POL) inhibitors (novobiocin, ART-558, RP6685) in combination with a variety of drugs and investigational agents in selected tumor cell lines
The POL inhibitors (novobiocin, ART-558, and RP6685) were evaluated both individually and in combination with standard of care and investigational anticancer small molecules within a complex spheroid model of solid tumors. . Complex spheroids include a stromal component modeled by human endothelial cells (HUVEC) and fibroblasts modeled by human mesenchymal stem cells (MSCs). The concentration ranges selected for each drug and investigational agent were based upon clinically achievable concentrations if the clinical Cmax of the agent was known.
Compounds. The drugs and investigational agents: novobiocin (NSC847541), ART-558 (NSC835418), RP-6685 (NSC848927), peposertib (NSC802822), ceralasertib (NSC780249), elimusertib (NSC800525), camonsertib (NSC841442), AZD-1390 (NSC803789), olaparib (NSC753686), talazoparib (NSC767125), rucaparib (NSC756644), sotorasib (NSC818433), MRTX-1133 (NSC836407), SN-38 (NSC673596), topotecan (NSC609699), epotoside (NSC141540), doxorubicin (NSC123127), gemcitabine (NSC613327), 5-fluorouracil (NSC19893), paclitaxel (NSC125973), vemurafenib (NSC761431), MSA-2 (NSC828583), SN-011 (NSC837082), adavosertib (NSC754352), prexasertib (NSC758257), carboplatin (NSC241240) and oxaliplatin (NSC266046), were obtained from the National Cancer Institute (NCI) Developmental Therapeutics Program Chemical Repository (21). The FDA-approved anticancer drug set is available from the Developmental Therapeutics Program at https://dtp.cancer.gov/organization/dscb/obtaining/. […] The stock solutions were prepared in dimethyl sulfoxide (DMSO, Sigma-Aldrich, St. Louis, MO, cat. D2650), except for the platinum compounds which were prepared in saline (Quality Biological, Gaithersburg, MD, cat. 114-055-101), at 800-fold the tested concentration and stored at -70 degrees C prior to their use. All drugs and investigational agents were tested over a range starting from a high concentration at or near the clinical Cmax and decreasing in half-log increments. If the clinical Cmax for an agent had not been determined, the highest concentration tested was 10 microM, except for SN-38, which was tested at a high concentration of 1 microM.
Cell Culture. All cells were maintained in an incubator at 37 degrees C and 5% CO2 with 95% humidity. The PDC lines were cultured according to standard operating procedures established by the NCI PDMR (https://pdmr.cancer.gov). Table 3 of the manuscript, lists the cell lines along with the number of the three cell types plated to form the mct-spheroids and media for tumor cell growth. After thawing, all PDC lines, except 997537-175-T-J1-PDC and 415267-285-R-J2-PDC, were cultured in Matrigel-coated flasks prepared with a working solution of 1X Ham's F-12 nutrient mix, without supplementation (Thermo Fisher Scientific, cat. 11765054), 100 U/mL penicillin-streptomycin (Thermo Fisher Scientific, cat. 15140122), and 2.5% Matrigel (Corning Inc., Corning, NY, cat. 354248) for the first three passages. The two PDC lines 997537-175-T-J1-PDC and 415267-285-R-J2-PDC were cultured on uncoated flasks. The 857933-349-R-J2-PDC line was cultured in 6C/Colon 1B media containing advanced DMEM/F-12 (Thermo Fisher Scientific, cat. 12634028), 10 mM HEPES (Thermo Fisher Scientific, cat. 15630080), 1X GlutaMAX supplement (Thermo Fisher Scientific, cat. 35050061), 0.1 mg/mL primocin (InvivoGen, San Diego, CA, cat. ant-pm-2), 10% defined fetal bovine serum, heat inactivated (HyClone Laboratories Inc., Logan, UT, cat. SH30070.03HI), 50% L-WRN conditioned media (ATCC, cat. CRL-3276), 1.25 mM N-Acetyl-L-cysteine (Sigma-Aldrich, cat. A9165), 10 mM nicotinamide (Sigma-Aldrich, cat. N0636), 1X B-27 supplement (Thermo Fisher Scientific, cat. 17504044), 1X N-2 supplement (Thermo Fisher Scientific, cat. […]

[1] = second compound 0.0316 µM, first compound 0.0316 µM
[2] = second compound 0.0316 µM, first compound 0.1 µM
[3] = second compound 0.1 µM, first compound 0.0316 µM
[4] = second compound 0.1 µM, first compound 0.1 µM
[5] = second compound 0.316 µM, first compound 0.0316 µM
[6] = second compound 0.316 µM, first compound 0.1 µM
[7] = second compound 1 µM, first compound 0.0316 µM
[8] = second compound 1 µM, first compound 0.1 µM
[9] = second compound 3.16 µM, first compound 0.0316 µM
[10] = second compound 3.16 µM, first compound 0.1 µM
[11] = second compound 10 µM, first compound 0.0316 µM
[12] = second compound 10 µM, first compound 0.1 µM
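Note: spheroids exposed to compounds for 7 days.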

## CCCS(=O)(=O)Nc1ccc(F)c(C(=O)c2c[nH]c3ncc(-c4ccc(Cl)cc4)cc23)c1F + COC1C(OC(N)=O)C(O)C(Oc2ccc3c(O)c(NC(=O)c4ccc(O)c(CC=C(C)C)c4)c(=O)oc3c2C)OC1(C)C
Second compound 0.0316 µM
  IC50: > 10000 nM
Second compound 0.1 µM
  IC50: > 10000 nM
Second compound 0.316 µM
  IC50: > 10000 nM
Second compound 1 µM
  IC50: > 10000 nM
Second compound 3.16 µM
  IC50: > 10000 nM
Second compound 10 µM
  IC50: > 10000 nM
[1]
  viability, T/C: 106%
[2]
  viability, T/C: 114%
Second compound 0.0316 µM, first compound 0.316 µM
  viability, T/C: 140%
Second compound 0.0316 µM, first compound 1 µM
  viability, T/C: 148%
Second compound 0.0316 µM, first compound 3.16 µM
  viability, T/C: 137%
Second compound 0.0316 µM, first compound 10 µM
  viability, T/C: 65.9%
[3]
  viability, T/C: 109%
[4]
  viability, T/C: 114%
Second compound 0.1 µM, first compound 0.316 µM
  viability, T/C: 130%
Second compound 0.1 µM, first compound 1 µM
  viability, T/C: 157%
Second compound 0.1 µM, first compound 3.16 µM
  viability, T/C: 143%
Second compound 0.1 µM, first compound 10 µM
  viability, T/C: 67.8%
[5]
  viability, T/C: 104%
[6]
  viability, T/C: 121%
Second compound 0.316 µM, first compound 0.316 µM
  viability, T/C: 131%
Second compound 0.316 µM, first compound 1 µM
  viability, T/C: 163%
Second compound 0.316 µM, first compound 3.16 µM
  viability, T/C: 137%
Second compound 0.316 µM, first compound 10 µM
  viability, T/C: 76.6%
[7]
  viability, T/C: 108%
[8]
  viability, T/C: 107%
Second compound 1 µM, first compound 0.316 µM
  viability, T/C: 123%
Second compound 1 µM, first compound 1 µM
  viability, T/C: 145%
Second compound 1 µM, first compound 3.16 µM
  viability, T/C: 139%
Second compound 1 µM, first compound 10 µM
  viability, T/C: 68.1%
[9]
  viability, T/C: 110%
[10]
  viability, T/C: 103%
Second compound 3.16 µM, first compound 0.316 µM
  viability, T/C: 122%
Second compound 3.16 µM, first compound 1 µM
  viability, T/C: 154%
Second compound 3.16 µM, first compound 3.16 µM
  viability, T/C: 151%
Second compound 3.16 µM, first compound 10 µM
  viability, T/C: 82.4%
[11]
  viability, T/C: 111%
[12]
  viability, T/C: 114%
Second compound 10 µM, first compound 0.316 µM
  viability, T/C: 128%
Second compound 10 µM, first compound 1 µM
  viability, T/C: 139%
Second compound 10 µM, first compound 3.16 µM
  viability, T/C: 152%
Second compound 10 µM, first compound 10 µM
  viability, T/C: 76.3%

## CC[C@@]1(O)C(=O)OCc2c1cc1n(c2=O)Cc2cc3c(CN(C)C)c(O)ccc3nc2-1 + COC1C(OC(N)=O)C(O)C(Oc2ccc3c(O)c(NC(=O)c4ccc(O)c(CC=C(C)C)c4)c(=O)oc3c2C)OC1(C)C
Second compound 0.0316 µM
  IC50: > 100 nM
Second compound 0.1 µM
  IC50: 94.7 nM
Second compound 0.316 µM
  IC50: > 100 nM
Second compound 1 µM
  IC50: > 100 nM
Second compound 3.16 µM
  IC50: > 100 nM
Second compound 10 µM
  IC50: > 100 nM
Second compound 0.0316 µM, first compound 0.000316 µM
  viability, T/C: 102%
Second compound 0.0316 µM, first compound 0.001 µM
  viability, T/C: 101%
Second compound 0.0316 µM, first compound 0.00316 µM
  viability, T/C: 84%
Second compound 0.0316 µM, first compound 0.01 µM
  viability, T/C: 98.1%
[1]
  viability, T/C: 76.2%
[2]
  viability, T/C: 51.3%
Second compound 0.1 µM, first compound 0.000316 µM
  viability, T/C: 111%
Second compound 0.1 µM, first compound 0.001 µM
  viability, T/C: 117%
Second compound 0.1 µM, first compound 0.00316 µM
  viability, T/C: 97.6%
Second compound 0.1 µM, first compound 0.01 µM
  viability, T/C: 97%
[3]
  viability, T/C: 76.7%
[4]
  viability, T/C: 48.3%
Second compound 0.316 µM, first compound 0.000316 µM
  viability, T/C: 94.4%
Second compound 0.316 µM, first compound 0.001 µM
  viability, T/C: 101%
Second compound 0.316 µM, first compound 0.00316 µM
  viability, T/C: 94.4%
Second compound 0.316 µM, first compound 0.01 µM
  viability, T/C: 87.2%
[5]
  viability, T/C: 73.2%
[6]
  viability, T/C: 54.4%
Second compound 1 µM, first compound 0.000316 µM
  viability, T/C: 104%
Second compound 1 µM, first compound 0.001 µM
  viability, T/C: 94.6%
Second compound 1 µM, first compound 0.00316 µM
  viability, T/C: 93.7%
Second compound 1 µM, first compound 0.01 µM
  viability, T/C: 95.3%
[7]
  viability, T/C: 76.2%
[8]
  viability, T/C: 56.1%
Second compound 3.16 µM, first compound 0.000316 µM
  viability, T/C: 98.5%
Second compound 3.16 µM, first compound 0.001 µM
  viability, T/C: 104%
Second compound 3.16 µM, first compound 0.00316 µM
  viability, T/C: 97%
Second compound 3.16 µM, first compound 0.01 µM
  viability, T/C: 84.3%
[9]
  viability, T/C: 77.3%
[10]
  viability, T/C: 55.1%
Second compound 10 µM, first compound 0.000316 µM
  viability, T/C: 109%
Second compound 10 µM, first compound 0.001 µM
  viability, T/C: 94.5%
Second compound 10 µM, first compound 0.00316 µM
  viability, T/C: 94.4%
Second compound 10 µM, first compound 0.01 µM
  viability, T/C: 79.2%
[11]
  viability, T/C: 66.1%
[12]
  viability, T/C: 50.9%

Source: PubChem BioAssay AID1963832 (Molecular Pharmacology Branch, DTP, NCI, 2024)
